Measured values taken from patent US20050255042A1, “On-demand cleavable linkers for radioconjugates for cancer imaging and therapy” (The Regents of the University of California Office of …, priority 2003, published 2005).

Assays:
[1] = 1.25 mg/kg body weight over 3 hours; 8 of 73 patients; cited from earlier work
[2] = in vivo; cited from earlier work
TNKase® = biological target: T1, TNKase® (Homo sapiens, UniProt P00750, H332A/K331A/N152Q/R333A/R334A/T138N); assay: Cleavage of soluble peptides in plasma plus TNKase®, fluorescence plate reader; format: biochemical
T1 construct: Activase® is a purified glycoprotein of 527 amino acids produced by recombinant DNA technology; purchased Genentech; host or cells: Chinese Hamster Ovary cells
T1 sequence (P00750 36-562 T138N/N152Q/K331A/H332A/R333A/R334A): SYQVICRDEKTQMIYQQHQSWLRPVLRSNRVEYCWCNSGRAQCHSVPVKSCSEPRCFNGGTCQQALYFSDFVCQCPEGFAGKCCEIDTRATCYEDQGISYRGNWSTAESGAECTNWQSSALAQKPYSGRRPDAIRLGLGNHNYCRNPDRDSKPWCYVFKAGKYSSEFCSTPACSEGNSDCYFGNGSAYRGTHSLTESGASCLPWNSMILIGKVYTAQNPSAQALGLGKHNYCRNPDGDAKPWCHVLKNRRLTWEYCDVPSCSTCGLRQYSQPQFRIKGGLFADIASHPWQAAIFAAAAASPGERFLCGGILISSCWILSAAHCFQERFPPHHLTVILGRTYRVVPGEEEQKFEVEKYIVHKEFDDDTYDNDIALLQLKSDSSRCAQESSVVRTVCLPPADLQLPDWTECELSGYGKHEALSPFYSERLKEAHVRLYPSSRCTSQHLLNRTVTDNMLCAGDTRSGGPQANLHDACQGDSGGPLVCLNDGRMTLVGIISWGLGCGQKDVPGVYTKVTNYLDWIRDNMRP
Method: (§1) The peptides in Table 3 were re-synthesized in soluble form with nitrotyrosine (Y(NO2) at the N-terminus and Abz at the ε-amino group of the lysine residue (k(Abz)) at the C-terminus. They were then incubated with human plasma alone or plasma plus TNKase® in a 96-well plate and the cleavage reaction was monitored over a period of time with a fluorescent plate reader. Each well contained 90 μM of peptides, 10 μl of plasma in PBS, ph 7.2, with or without 1 μg of TNKase®, in a final volume of 100 μl. Cleavage was measured as fluorescence intensity at different time intervals in the fluorescence plate reader at 360/440 nm excitation and emission range.

[3] = Cleavage of soluble peptides in human plasma alone, fluorescence plate reader; format: in vitro ADME; details: 90 μM peptide, 10 μl plasma in PBS pH 7.2, without TNKase®
Method: as §1

t-PA = t-PA (Homo sapiens, UniProt P00750); details: cited from earlier work
t-PA, sequence (P00750 36-562, species assumed): as the sequence (P00750 36-562 T138N/N152Q/K331A/H332A/R333A/R334A) above, with N103T, Q117N, A296K, A297H, A298R, A299R counted along it

For “Activase®: purified recombinant t-PA glycoprotein of 527 amino acids, from Genentech”, which “patients with a decrease in fibrinogen to below 100 mg/dl” value [1] is on record?
The value was 11%.

What about the initial plasma half-life [2] of the same substance?
The initial plasma half-life was 5 min.

And the plasma clearance [2]?
The plasma clearance was 380 to 570 mL/min.

With rqYKYkf [compound 20] as the substance, how does the “time to complete degradation by TNKase®” value (TNKase®; 10 μg/ml TNKase®) read?
Its value is ≤ 2 h.

What about the “degradation on incubation with TNKase®” value (TNKase®; 10 μg/ml TNKase®, two hours) of the same substance?
The value was “completely degraded”.

What about the “susceptibility to TNKase® cleavage” value (TNKase®; plasma plus TNKase®) of the same substance?
Its value is “rapidly degraded”.

And the “stability / cleavage in human plasma” value [3]?
Its value is “completely stable”.

For GGSG PFGR↓SA LVPEE, which “hydrolysis efficiency by t-PA versus a peptide of similar length from the native cleavage site of plasminogen” value (t-PA) is on record?
The value was 5000 fold.
